This passage reports H2O2 stability results from patent US8956160B2, “Device and method for delivering an oral care agent” (Ranir, LLC, priority 2002, dated 2015).

A short description of this data set: Accelerated H2O2 stability study with individual ingredients of backing, anchor and oral care layers. The format is physicochemical. The conditions noted are these: 40° C./75% RH, up to 9 weeks. As for the experimental part: Accelerated H2O2 stability studies were conducted at 40° C./75% relative humidity (RH) with the individual ingredients used to form the backing, anchor and oral care layers as described in Example 1.

For `OO` [Device H2O2, hydrogen peroxide], the H2O2 stability result is recorded as “good stability”.
